According to patent US10597388B2, “Pyridazinone herbicides” (FMC CORPORATION, priority 2014, dated 2020):

Key:
Assay in all cases: Test E greenhouse herbicide test, pre- and postemergence
Format in all cases: in vivo
[1] = system: arrowleaf sida (Sida rhombifolia)
Excerpt: (§1) Seeds of plant species selected from corn (Zea mays), soybean (Glycine max), velvetleaf (Abutilon theophrasti), lambsquarters (Chenopodium album), wild poinsettia (Euphorbia heterophylla), pigweed, palmer (palmer pigweed, Amaranthus palmeri), waterhemp (common waterhemp, Amaranthus rudis), surinam grass (Brachiaria decumbens), crabgrass, large (large crabgrass, Digitaria sanguinalis), crabgrass, Brazilian (Brazilian crabgrass, Digitaria horizontalis), panicum, fall (fall panicum, Panicum dichotomiflorum), foxtail, giant (giant foxtail, Setaria faberii), foxtail, green (green foxtail, Setaria viridis), goosegrass (Eleusine indica), johnsongrass (Sorghum halepense), ragweed (common ragweed, Ambrosia elatior), barnyardgrass (Echinochloa crus-galli), sandbur (southem sandbur, Cenchrus echinatus), arrowleaf sida (Sida rhombifolia), Italian ryegrass (Lolium multiflorum), dayflower (Virginia (VA) dayflower, Commelina virginica), field bindweed (Convolvulus arvensis), momingglory (Ipomoea coccinea), nightshade (eastern black nightshade, Solanum ptycanthum), kochia (Kochia scoparia), nutsedge, yellow (yellow nutsedge, Cyperus esculentus), horseweed (Conyza canadensis), and beggarticks (hairy beggarticks, Bidens pilosa), were planted into a silt loam soil and treated preemergence with test chemicals formulated in a non-phytotoxic solvent mixture which included a surfactant.
(§2) At the same time, plants from these crop and weed species and also waterhemp_RES1, (ALS & Triazine resistant common waterhemp, Amaranthus rudis), and waterhemp_RES2, (ALS & HPPD resistant common waterhemp, Amaranthus rudis) were planted in pots containing Redi-Earth® planting medium (Scotts Company, 14111 Scottslawn Road, Marysville, Ohio 43041) comprising spaghnum peat moss, vermiculite, wetting agent and starter nutrients were treated with postemergence applications of test chemicals formulated in the same manner. Plants ranged in height from 2 to 18 cm for postemergence treatments (1- to 4-leaf stage). Treated plants and controls were maintained in a greenhouse for 14 to 21 d, after which time all species were compared to controls and visually evaluated. Plant response ratings, summarized in Table E, are based on a scale of 0 to 100 where 0 is no effect and 100 is complete control. A dash (-) response means no test result.

[2] = system: beggarticks (hairy beggarticks, Bidens pilosa)
Excerpt: as §1, §2

corn (Zea mays) = system: corn (Zea mays)
Excerpt: as §1, §2

[3] = system: crabgrass, Brazilian (Brazilian crabgrass, Digitaria horizontalis)
Excerpt: as §1, §2

[4] = system: foxtail, giant (giant foxtail, Setaria faberii); settings: Preemergence
Excerpt: as §1, §2

[5] = system: goosegrass (Eleusine indica); settings: Preemergence
Excerpt: as §1, §2

[6] = system: johnsongrass (Sorghum halepense); settings: Preemergence
Excerpt: as §1, §2

kochia (Kochia scoparia) = settings: Preemergence
Excerpt: as §1, §2

[7] = system: lambsquarters (Chenopodium album); settings: Preemergence
Excerpt: as §1, §2

[8] = system: nightshade (eastern black nightshade, Solanum ptycanthum); settings: Preemergence
Excerpt: as §1, §2

[9] = system: panicum, fall (fall panicum, Panicum dichotomiflorum)
Excerpt: as §1, §2

[10] = system: pigweed, palmer (palmer pigweed, Amaranthus palmeri)
Excerpt: as §1, §2

[11] = system: ragweed (common ragweed, Ambrosia elatior); settings: Preemergence
Excerpt: as §1, §2

[12] = system: sandbur (southem sandbur, Cenchrus echinatus)
Excerpt: as §1, §2

soybean (Glycine max) = system: soybean (Glycine max)
Excerpt: as §1, §2

[13] = system: surinam grass (Brachiaria decumbens); settings: Preemergence
Excerpt: as §1, §2

[14] = system: velvetleaf (Abutilon theophrasti); settings: Preemergence
Excerpt: as §1, §2

[15] = 62 g ai/ha, Postemergence, scale 0 to 100 (0 no effect, 100 complete control)
[16] = 62 g ai/ha, Preemergence, scale 0 to 100 (0 no effect, 100 complete control)
[17] = 125 g ai/ha, Postemergence, scale 0 to 100 (0 no effect, 100 complete control)
[18] = 250 g ai/ha, Postemergence, scale 0 to 100 (0 no effect, 100 complete control)
[19] = Postemergence, 16 g ai/ha, visual, scale 0 no effect to 100 complete control
[20] = Postemergence, 31 g ai/ha, visual, scale 0 no effect to 100 complete control
[21] = Preemergence, 16 g ai/ha, scale 0 to 100, 0 no effect, 100 complete control
[22] = Preemergence, 31 g ai/ha, scale 0 to 100, 0 no effect, 100 complete control
[23] = Preemergence, 125 g ai/ha, visual, scale 0 no effect to 100 complete control
[24] = Preemergence, 250 g ai/ha, visual, scale 0 no effect to 100 complete control
[25] = 62 g ai/ha, scale 0 to 100 (0 no effect, 100 complete control)
[26] = 16 g ai/ha, scale 0 to 100, 0 no effect, 100 complete control
[27] = 31 g ai/ha, scale 0 to 100, 0 no effect, 100 complete control
[28] = 125 g ai/ha, visual, scale 0 no effect to 100 complete control
[29] = 250 g ai/ha, visual, scale 0 no effect to 100 complete control
[30] = 125 g ai/ha, scale 0 to 100 (0 no effect, 100 complete control)
[31] = 125 g ai/ha, Preemergence, scale 0 to 100 (0 no effect, 100 complete control)

Cc1ccc2sc(C)c(-c3c(O)c(C)nn(C)c3=O)c2c1 [Compound 1, 4-(2,5-dimethylbenzo[b]thien-3-yl)-5-hydroxy-2,6-dimethyl-3(2H)-pyridazinone]
Plant response rating, Arrowleaf Sida [1, 15]: 70
Plant response rating, Arrowleaf Sida [1, 16]: 65
Plant response rating, Arrowleaf Sida [1, 17]: 70
Plant response rating, Arrowleaf Sida [1, 18]: 80
Plant response rating, Arrowleaf Sida [1, 19]: 30
Plant response rating, Arrowleaf Sida [1, 20]: 50
Plant response rating, Arrowleaf Sida [1, 21]: 0
Plant response rating, Arrowleaf Sida [1, 22]: 0
Plant response rating, Arrowleaf Sida [1, 23]: 75
Plant response rating, Arrowleaf Sida [1, 24]: 80
Plant response rating, Beggarticks [2, 15]: 98
Plant response rating, Beggarticks [2, 16]: 100
Plant response rating, Beggarticks [2, 17]: 100
Plant response rating, Beggarticks [2, 18]: 100
Plant response rating, Beggarticks [2, 19]: 70
Plant response rating, Beggarticks [2, 20]: 85
Plant response rating, Beggarticks [2, 21]: 100
Plant response rating, Beggarticks [2, 22]: 100
Plant response rating, Beggarticks [2, 23]: 100
Plant response rating, Beggarticks [2, 24]: 100
Plant response rating, Corn (corn (Zea mays); [15]): 5
Plant response rating, Corn (corn (Zea mays); [16]): 0
Plant response rating, Corn (corn (Zea mays); [17]): 5
Plant response rating, Corn (corn (Zea mays); [18]): 5
Plant response rating, Corn (corn (Zea mays); [19]): 0
Plant response rating, Corn (corn (Zea mays); [20]): 5
Plant response rating, Corn (corn (Zea mays); [21]): 0
Plant response rating, Corn (corn (Zea mays); [22]): 0
Plant response rating, Corn (corn (Zea mays); [23]): 0
Plant response rating, Corn (corn (Zea mays); [24]): 0
Plant response rating, Crabgrass, Brazil [3, 15]: 15
Plant response rating, Crabgrass, Brazil [3, 16]: 80
Plant response rating, Crabgrass, Brazil [3, 17]: 20
Plant response rating, Crabgrass, Brazil [3, 18]: 35
Plant response rating, Crabgrass, Brazil [3, 19]: 0
Plant response rating, Crabgrass, Brazil [3, 20]: 15
Plant response rating, Crabgrass, Brazil [3, 21]: 0
Plant response rating, Crabgrass, Brazil [3, 22]: 10
Plant response rating, Crabgrass, Brazil [3, 23]: 100
Plant response rating, Crabgrass, Brazil [3, 24]: 100
Plant response rating, Foxtail, Giant [4, 25]: 35
Plant response rating, Foxtail, Giant [4, 26]: 0
Plant response rating, Foxtail, Giant [4, 27]: 50
Plant response rating, Foxtail, Giant [4, 28]: 95
Plant response rating, Foxtail, Giant [4, 29]: 98
Plant response rating, Goosegrass [5, 25]: 5
Plant response rating, Goosegrass [5, 26]: 0
Plant response rating, Goosegrass [5, 27]: 15
Plant response rating, Goosegrass [5, 28]: 35
Plant response rating, Goosegrass [5, 29]: 25
Plant response rating, Johnsongrass [6, 25]: 0
Plant response rating, Johnsongrass [6, 26]: 0
Plant response rating, Johnsongrass [6, 27]: 0
Plant response rating, Johnsongrass [6, 28]: 30
Plant response rating, Johnsongrass [6, 29]: 40
Plant response rating, Kochia (kochia (Kochia scoparia); [25]): 5
Plant response rating, Kochia (kochia (Kochia scoparia); [26]): 0
Plant response rating, Kochia (kochia (Kochia scoparia); [27]): 0
Plant response rating, Kochia (kochia (Kochia scoparia); [28]): 35
Plant response rating, Kochia (kochia (Kochia scoparia); [29]): 85
Plant response rating, Lambsquarters [7, 25]: 98
Plant response rating, Lambsquarters [7, 26]: 65
Plant response rating, Lambsquarters [7, 27]: 65
Plant response rating, Lambsquarters [7, 28]: 100
Plant response rating, Lambsquarters [7, 29]: 100
Plant response rating, Nightshade [8, 25]: 95
Plant response rating, Nightshade [8, 30]: 100
Plant response rating, Nightshade [8, 26]: 80
Plant response rating, Nightshade [8, 27]: 90
Plant response rating, Nightshade [8, 29]: 100
Plant response rating, Panicum, Fall [9, 15]: 75
Plant response rating, Panicum, Fall [9, 16]: 90
Plant response rating, Panicum, Fall [9, 17]: 80
Plant response rating, Panicum, Fall [9, 31]: 95
Plant response rating, Panicum, Fall [9, 18]: 85
Plant response rating, Panicum, Fall [9, 19]: 70
Plant response rating, Panicum, Fall [9, 20]: 75
Plant response rating, Panicum, Fall [9, 21]: 65
Plant response rating, Panicum, Fall [9, 22]: 75
Plant response rating, Panicum, Fall [9, 24]: 100
Plant response rating, Pigweed, Palmer [10, 15]: 90
Plant response rating, Pigweed, Palmer [10, 16]: 100
Plant response rating, Pigweed, Palmer [10, 17]: 75
Plant response rating, Pigweed, Palmer [10, 31]: 100
Plant response rating, Pigweed, Palmer [10, 18]: 98
Plant response rating, Pigweed, Palmer [10, 19]: 70
Plant response rating, Pigweed, Palmer [10, 20]: 20
Plant response rating, Pigweed, Palmer [10, 21]: 20
Plant response rating, Pigweed, Palmer [10, 22]: 90
Plant response rating, Pigweed, Palmer [10, 24]: 100
Plant response rating, Ragweed [11, 25]: 75
Plant response rating, Ragweed [11, 30]: 100
Plant response rating, Ragweed [11, 26]: 35
Plant response rating, Ragweed [11, 27]: 70
Plant response rating, Ragweed [11, 29]: 100
Plant response rating, Sandbur [12, 15]: 30
Plant response rating, Sandbur [12, 16]: 20
Plant response rating, Sandbur [12, 17]: 30
Plant response rating, Sandbur [12, 31]: 70
Plant response rating, Sandbur [12, 18]: 30
Plant response rating, Sandbur [12, 19]: 0
Plant response rating, Sandbur [12, 20]: 10
Plant response rating, Sandbur [12, 21]: 0
Plant response rating, Sandbur [12, 22]: 10
Plant response rating, Sandbur [12, 24]: 70
Plant response rating, Soybean (soybean (Glycine max); [15]): 10
Plant response rating, Soybean (soybean (Glycine max); [16]): 15
Plant response rating, Soybean (soybean (Glycine max); [17]): 15
Plant response rating, Soybean (soybean (Glycine max); [31]): 40
Plant response rating, Soybean (soybean (Glycine max); [18]): 20
Plant response rating, Soybean (soybean (Glycine max); [19]): 0
Plant response rating, Soybean (soybean (Glycine max); [20]): 0
Plant response rating, Soybean (soybean (Glycine max); [21]): 0
Plant response rating, Soybean (soybean (Glycine max); [22]): 0
Plant response rating, Soybean (soybean (Glycine max); [24]): 75
Plant response rating, Surinam Grass [13, 25]: 50
Plant response rating, Surinam Grass [13, 30]: 80
Plant response rating, Surinam Grass [13, 26]: 0
Plant response rating, Surinam Grass [13, 27]: 25
Plant response rating, Surinam Grass [13, 29]: 75
Plant response rating, Velvetleaf [14, 25]: 75
Plant response rating, Velvetleaf [14, 30]: 90
Plant response rating, Velvetleaf [14, 26]: 35
Plant response rating, Velvetleaf [14, 27]: 75
Plant response rating, Velvetleaf [14, 29]: 98
